Test [1] concerns BALB/c mice. Nature of the test: serum SOD, MDA, AST, ALT levels after exhaustive exercise. Format: in vivo. The procedure:
(§1) The mice were randomized into groups of CMS-001 (20 μg/kg/day, 5 μg/kg/day), CMS-008 (500 μg/kg/day, 125 μg/kg/day), and saline control. The test substance was administered by intraperitoneal injection once per day for 30 continuous days. A week after the start the of the test substance administration, the mice were trained to swim for 10 min, at water temperature of 25±1° C. 30 min after the last injection, the mice were placed to swim in the swimming tank without addition of weight at water depth of 30 cm and temperature of 25±1° C.^[4]. By the first time the mice sunk, the mice were rescued and blood was collected from the orbital sinus immediately. The serum was isolated and the MDA, SOD, AST, and ALT levels determined.

The test system of test [2] is BALB/c mice. Nature of the test: blood lactic acid level of mice after exercise. It is filed as in vivo. Particulars: for Lactic acid elimination after rest: 20 min rest. The procedure: (§2) The mice were randomized into groups of CMS-001 (20 μg/kg/day, 5 μg/kg/day), CMS-008 (500 μg/kg/day, 125 μg/kg/day), and saline control. The test substance was administered by intraperitoneal injection once per day for 30 continuous days. A week after the start the of the test substance administration, the mice were trained to swim for 10 min, at water temperature of 25±1° C.
30 min after the last injection, 20 μl of blood was first collected from the orbital sinus. The mice were then weighed, and lead pieces corresponding to 4% of the body weight were wrapped to the tails of the mice at about 1 cm away from the body. The mice were placed to swim in the swimming tank for 10 min, at water depth of 30 cm and temperature of 30±1° C. The limbs of the mice were kept moving in the whole process. Immediately after the exercise and after resting for 20 min, 20 μl of blood was collected from the orbital sinus again. The blood was added into 40 μl hypotonic buffer and sonicated. Lactic acid level in the blood was determined by the lactic acid analyzer.
The amount of lactic acid increase after exercise is calculated based on the amount of lactic acid level immediately after exercise minus the lactic acid level before exercise.
The amount of lactic acid elimination after rest was calculated based on the amount of lactic acid level immediately after exercise minus the lactic acid level after rest.

Test [3] has as its system BALB/c mice exhaustive swimming model. Description: exhaustive swimming time of mice. It is filed as in vivo. Conditions: 30 days. Here is the method: as §2
30 min after the last injection, the mice were weighed, and lead pieces corresponding to 5% of the body weight were wrapped to the tails of the mice at about 1 cm away from the body. The mice were placed in the swimming tank, at water depth of 30 cm and temperature of 25±1° C. The limbs of the mice were kept moving in the whole process. The time of swimming until the death was recorded.

For test [4], the system named is BALB/c mice. Nature of the test: serum urea nitrogen level after exercise. It is filed as in vivo. Here is the method: as §1, with “weight for 90 min,” for “weight”, “cm” for “cm and”, “30±1° C. The” for “25±1° C.^[4]. By the first time the mice sunk, the”, “then allowed to rest for 30 min,” for “rescued”, “sinus.” for “sinus immediately.”, “BUN was determined by a fully automated Biochemistry Analyser.” for “MDA, SOD, AST, and ALT levels determined.”

Test [5] deals with BALB/c mice. Nature of the test: liver glycogen level of mice. It is filed as in vivo. The procedure: The mice were randomized into groups of CMS-001 (20 μg/kg/day, 5 μg/kg/day), CMS-008 (500 μg/kg/day, 125 μg/kg/day), and saline control. The test substance was administered by intraperitoneal injection once per day for 30 continuous days. A week after the start the of the test substance administration, the mice were trained to swim for 10 min, at water temperature of 25±1° C. 30 min after the last injection, the mice were killed by cervical dislocation and the liver was dissected, washed with saline, and blotted dry with filter paper. About 100 mg liver was accurately weighed and the liver glycogen level was determined by the Anthracene Ketone reagent kit. Glycogen weight (mg) in every 100 g of liver=DU/DS×0.5×homogenization liquid vol./liver weight(g)×100×0.9.

Test [6] concerns Balb/c mice swimming time model. Description: exhaustive swimming time of mice (Example 11). Format: in vivo. Here is the method: Balb/c male mice were randomized into groups of CMS-001.30 (20 μg/kg/day), CMS-001.31 (20 μg/kg/day), EPO (1000 u/kg/day, three times per week), and saline control. The test substance was dissolved in 0.5 ml saline and applied intraperitoneally once per day for 30 continuous days (EPO was replaced with saline if EPO was not applied). On the tenth day, the mice were trained to swim for 10 min at water temperature of 25±1° C. 30 min after the last test substance administration, the mice were placed to swim in the swimming tank (50 cm×50 cm×40 cm). The depth of water was 30 cm and water temperature 25±1° C. The limbs of the mice were kept moving in the whole process. The swimming (min) time of the mice until death was recorded. Exhaustive swimming time extension rate (ESTR) (%)=(Mean exhaustive swimming time of test group−Mean exhaustive swimming time of saline control)/(Mean exhaustive swimming time of saline control)×100%. 1.4 Statisitics

For test [7], the system named is hepatocarcinoma H22. Description: survival of mice transplanted with H22 hepatocarcinoma. It is filed as in vivo, BALB/c mice. Conditions: for survival of mice transplanted with H22 tumor cells: 80 μg/kg/day, vs saline control P<0.05. Here is the method:
Healthy BALB/c mice were randomized into groups of CMS-024.04, CMS-025.05, CMS-024.14, and CMS-024.16 (80 μg/kg/day), 5-Fu (20 mg/kg/day, once for every two days), saline (0.2 ml/day), and normal group (without tumor cell inoculation).
Mice inoculated with hepatocarcinomas for 6-8 days were sacrificed. The ascites was collected and the cell concentration adjusted to 5×10^7/ml with D-Hanks' solution. 0.2 ml of this was inoculated intraperitoneally to each BALB/c mouse except for the normal controls.
Administration of test substance was started on the next day after the tumor cell inoculation. The peptides and saline were applied daily and 5-FU once every two days for 60 continuous days or until the death of the mice.
The time of death was recorded and survival time prolongation calculated. Survival time prolongation was calculated as below: Survival prolongation (%)=(Average survival days of test group)−(Average survival days of saline control group)/(Average survival days of saline group)×100%.

The subject of test [8] is human gastric carcinoma BGC-823 xenograft. Nature of the test: nude mice-transplanted human gastric carcinoma BGC-823 xenograft. It is filed as in vivo, BALB/c (nu/nu) nude mice. Particulars: 30 days. Here is the method:
Hunan gastric carcinoma cell line BGC-823 at log phase were adjusted to the concentration of 2×10^7/ml and then inoculated subcutaneously to the back of nude mice (0.1 ml per mouse). The inoculated animals were randomized into groups of CMS024-16 (160 μg/kg/day, 320 μg/kg/day, and 640 μg/kg/day, all at 0.2 ml/day), positive control (5-Fu, 20 mg/kg/day at 0.2 ml/day), and negative control (normal saline, 0.2 ml/day). Administration of test substances by intraperitoneal injection was started on the next day after tumor implantation once per day for 30 continuous days. On the next day after the last injection, the tumor masses were collected and their weights determined Inhibition rate=(Mean weight of negative control−Mean weight of test group)/(Mean weight of negative control)×100%

Where [9] appears, read: Table 6.2 experiment, 80 μg/kg daily i.p.
Where [10] appears, read: Table 6.1 experiment, 20 mg/kg once every two days.
The mark [11] stands for this setting: Table 6.2 experiment, 20 mg/kg once every two days.
Setting [12] is: 1000 u/kg/day, 3 times per week.
Setting [13] is: Table 6.1 experiment, 80 μg/kg daily i.p.

Marks after values point to notes of the source that are not given here. Square brackets hold non-standard residues; d marks the D form. Ends that are not written are not given here. Tyr(3,5-Br2) = N[C@@H](Cc1cc(Br)c(O)c(Br)c1)C(=O)O; Nle = CCCC[C@H](N)C(=O)O

Turning to KAVGHLDDLPGAL [CMS-008], in test [1] (500 μg/kg/day), the ALT stood at 32.9 ± 5.2 U/L, the AST was found to be 116.6 ± 18.8 U/L, the MDA was determined as 4.1 ± 0.4 nmol/L and the SOD is recorded as 415.7 ± 31.5 U/ml. In test [2] (125 μg/kg/day), the “Lactic acid increase after exercise” value was found to be 2.70 ± 0.15 mmol/L and the “Lactic acid elimination after rest” value was found to be 3.62 ± 0.57 mmol/L. In test [2] (500 μg/kg/day), the “Lactic acid increase after exercise” value stood at 2.23 ± 0.30 mmol/L and the “Lactic acid elimination after rest” value is 3.71 ± 0.22 mmol/L. In test [3] (125 μg/kg/day i.p.), the Swimming time is on record as 106.5 ± 19.4 min and the Swimming-time extension is 57.9* %. Besides, in test [3] (500 μg/kg/day i.p.), the Swimming time stood at 116.5 ± 17.7 min and the Swimming-time extension is 72.7* %. For the same compound, the “Urea Nitrogen” value in test [4] (125 μg/kg/day) was 7.2 ± 2.3 mmol/L. In addition, in test [4] (500 μg/kg/day), the “Urea Nitrogen” value amounted to 7.1 ± 2.0 mmol/L. In test [5] (125 μg/kg/day), the liver glycogen turned out to be 1275 ± 726 mg/100 g liver tissue. For the same compound, the liver glycogen in test [5] (500 μg/kg/day) is 1408 ± 457 mg/100 g liver tissue.
In the case of PTTKTYFPHF [CMS-001], in test [1] (20 μg/kg/day), the ALT came out at 32.7 ± 3.0 U/L, the AST worked out at 117.0 ± 19.2 U/L, the MDA came out at 4.4 ± 0.2 nmol/L and the SOD is listed as 400.6 ± 45.6 U/ml. Besides, in test [2] (5 μg/kg/day), the “Lactic acid increase after exercise” value came to 2.60 ± 0.33 mmol/L and the “Lactic acid elimination after rest” value is 2.96 ± 0.33 mmol/L. Also, in test [2] (20 μg/kg/day), the “Lactic acid increase after exercise” value is 2.56 ± 0.41 mmol/L and the “Lactic acid elimination after rest” value was determined as 3.14 ± 0.64 mmol/L. In test [3] (5 μg/kg/day i.p.), the Swimming time stood at 105.7 ± 19.8 min and the Swimming-time extension was 56.7* %. In test [3] (20 μg/kg/day i.p.), the Swimming time is on record as 99.8 ± 30.6 min and the Swimming-time extension is listed as 48.0* %. For the same compound, the “Urea Nitrogen” value in test [4] (5 μg/kg/day) turned out to be 6.9 ± 1.6 mmol/L. Also, the “Urea Nitrogen” value in test [4] (20 μg/kg/day) is 7.3 ± 2.1 mmol/L. Further, the liver glycogen in test [5] (5 μg/kg/day) is 439 ± 271 mg/100 g liver tissue. In addition, in test [5] (20 μg/kg/day), the liver glycogen was determined as 1567 ± 604 mg/100 g liver tissue.
Take PTTKTY [CMS-001.30]: the “ESTR (exhaustive swimming time extension rate)” value (“ESTR” below) in test [6] (20 μg/kg/day i.p., 30 days) is given as 88.3* %.
With “(3,5-dibromo-Tyr)-Ser-Leu ([Tyr(3,5-Br2)]-Ser-Leu) [CMS-024.14]”, the “survival of mice transplanted with H22 tumor cells” value (“survival of mice transplanted” below) in test [7] is given as “prolong the survival”. In addition, in test [7] (setting [9]), the “Survival Prolongation” value is on record as 50.3%, the “Survival time (first column)” value came to 16.0 ± 0.0 days and the “Survival time (second column)” value was 27.6 ± 8.5 days.
For the compound `O=c1[nH]cc(F)c(=O)[nH]1` [5-Fu, 5-fluorouracil, reference compound], in test [8] (20 mg/Kg/day i.p.), the Inhibition rate is 40.8* % and the Tumor weight was 1.70 ± 0.70 g. For the same compound, in test [7] (setting [10]), the “Survival Prolongation” value is listed as 84.5* %, the “Survival time (first column)” value was found to be 30.0 ± 2.0 days and the “Survival time (second column)” value is recorded as 32.5 ± 6.3 days. Moreover, in test [7] (setting [11]), the “Survival Prolongation” value worked out at 33.3%, the “Survival time (first column)” value was 18.0 ± 0.4 days and the “Survival time (second column)” value worked out at 24.5 ± 11.1 days.
For the compound “Leu-Tyr-Ser (LYS; Synthetically prepared peptide sequence) [CMS-024.16]”, in test [8] (160 μg/Kg/day i.p.), the Inhibition rate is 54.0* % and the Tumor weight worked out at 1.32 ± 0.68 g. In test [8] (320 μg/Kg/day i.p.), the Inhibition rate is 44.7* % and the Tumor weight is listed as 1.59 ± 1.017 g. For the same compound, in test [8] (640 μg/Kg/day i.p.), the Inhibition rate is reported as 54.4* % and the Tumor weight is 1.31 ± 0.77 g. Besides, the “survival of mice transplanted” value in test [7] is “prolong the survival”. In test [7] (setting [9]), the “Survival Prolongation” value is 57.8%, the “Survival time (first column)” value was found to be 18.0 ± 1.0 days and the “Survival time (second column)” value is 29.0 ± 7.9 days.
Take “Erythropoietin [EPO, reference compound]”: in test [6] (setting [12]), the “ESTR” value is listed as 31.3* % and the Swimming time is recorded as 126.1 ± 20.4 min.
Regarding PTTKTYFP [CMS-001.31], the “ESTR” value in test [6] (20 μg/kg/day i.p., 30 days) is recorded as 76.0* %.
Turning to “Tyr-Thr-Val (YTV; Synthetically prepared peptide sequence) [CMS-024.05]”, the “survival of mice transplanted” value in test [7] is “prolong the survival”. In test [7] (setting [13]), the “Survival Prolongation” value was 10.4* %, the “Survival time (first column)” value worked out at 19.0 ± 1.0 days and the “Survival time (second column)” value turned out to be 19.3 ± 2.4 days.
For the compound “Tyr-Ser-Nle (Tyr-Ser-[Nle]) [CMS-024.04, Nle = norleucine (2-aminohexanoic acid)]”, in test [7], the “survival of mice transplanted” value is “prolong the survival”. Besides, in test [7] (setting [13]), the “Survival Prolongation” value is reported as 15.8* %, the “Survival time (first column)” value worked out at 19.0 ± 0.9 days and the “Survival time (second column)” value came to 20.2 ± 4.4 days.
